ChEMBL document CHEMBL1201862, “PubChem BioAssay data set” (2004)
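In this assay, cells in 96-well plates receive the compound at five concentrations for 48 hours. Endpoints are linearly interpolated between the surrounding concentrations. GI50 = concentration required for 50% inhibition of growth.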 The source made the active and inactive calls. No stated cut-off is given here; in the data, active = GI50 up to about 1.1 µM and inactive = higher.

Columns and labels:
Assay in all cases: NCI-60 cell line screen, 48 h
[1] = system: CCRF-CEM
[2] = system: HCT-15
[3] = system: IGROV-1
[4] = system: KM12
[5] = system: NCI-H226
[6] = system: NCI-H522
[7] = system: OVCAR-5
[8] = system: SF-268
[9] = system: SK-MEL-2
[10] = system: SNB-19
[11] = system: SR
[12] = system: TK-10
[13] = system: UACC-257
[14] = system: UO-31
[15] = system: EKVX
[16] = system: RXF 393

Cc1c(-c2coc(-c3ccccc3)n2)c(=O)n(-c2ccccc2)n1C
GI50 [1]: > 100 µM (inactive)
GI50 [2]: > 100 µM
GI50 [3]: > 100 µM (inactive)
GI50 [4]: > 100 µM (inactive)
GI50 [5]: 94.4 µM (inactive)
GI50 [6]: 29.1 µM (inactive)
GI50 [7]: > 100 µM (inactive)
GI50 [8]: > 100 µM (inactive)
GI50 [9]: > 100 µM (inactive)
GI50 [10]: > 100 µM (inactive)
GI50 [11]: 45.5 µM (inactive)
GI50 [12]: > 100 µM (inactive)
GI50 [13]: 49.7 µM (inactive)
GI50 [14]: 84.7 µM (inactive)

Cc1cc2c(=O)n(-c3ccc(F)cc3)c(C)nc2c(C(=O)O)c1C
GI50 [1]: > 100 µM (inactive)
GI50 [15]: > 100 µM (inactive)
GI50 [2]: > 100 µM
GI50 [3]: > 100 µM (inactive)
GI50 [4]: > 100 µM (inactive)
GI50 [5]: > 100 µM (inactive)
GI50 [7]: > 100 µM (inactive)
GI50 [16]: > 100 µM (inactive)
GI50 [8]: > 100 µM (inactive)
GI50 [9]: > 100 µM (inactive)
GI50 [11]: > 100 µM (inactive)
GI50 [12]: > 100 µM (inactive)
GI50 [13]: > 100 µM (inactive)
GI50 [14]: > 100 µM (inactive)

Cc1nc(-n2nc(-c3ccccc3)cc2-c2ccccc2)sc1C(=O)/C=C/c1ccccc1
GI50 [1]: 72.9 µM (inactive)
GI50 [15]: 32.9 µM (inactive)
GI50 [2]: > 100 µM
GI50 [3]: 75.5 µM (inactive)
GI50 [4]: 84.3 µM (inactive)
GI50 [6]: 33.1 µM (inactive)
GI50 [7]: > 100 µM (inactive)
GI50 [16]: > 100 µM (inactive)
GI50 [8]: > 100 µM (inactive)
GI50 [9]: > 100 µM (inactive)
GI50 [10]: > 100 µM (inactive)
GI50 [12]: > 100 µM (inactive)
GI50 [13]: > 100 µM (inactive)
GI50 [14]: 17.9 µM (inactive)

CCCCNC1=C(C(=O)OCC)/C(=N/NC(=O)c2ccccc2O)CO1
GI50 [1]: 23.7 µM (inactive)
GI50 [15]: > 100 µM (inactive)
GI50 [3]: 8.99 µM (inactive)
GI50 [4]: 79.3 µM (inactive)
GI50 [5]: 18.5 µM (inactive)
GI50 [6]: 13.4 µM (inactive)
GI50 [7]: 59.7 µM (inactive)
GI50 [16]: 23.8 µM (inactive)
GI50 [8]: 6.97 µM (inactive)
GI50 [9]: 18.4 µM (inactive)
GI50 [10]: > 100 µM (inactive)
GI50 [12]: 98.4 µM (inactive)
GI50 [13]: 2.82 µM (inactive)
GI50 [14]: 4.54 µM (inactive)

CC1CC(=O)CC[C@@H]1OCc1ccccc1 (some centres not stated)
GI50 [1]: 53.8 µM (inactive)
GI50 [15]: > 100 µM (inactive)
GI50 [2]: > 100 µM
GI50 [3]: > 100 µM (inactive)
GI50 [4]: > 100 µM (inactive)
GI50 [7]: > 100 µM (inactive)
GI50 [16]: > 100 µM (inactive)
GI50 [8]: > 100 µM (inactive)
GI50 [9]: > 100 µM (inactive)
GI50 [10]: > 100 µM (inactive)
GI50 [12]: > 100 µM (inactive)
GI50 [13]: > 100 µM (inactive)
GI50 [14]: > 100 µM (inactive)

NNC(=O)C(=O)N/N=C(\CCCC(=O)Nc1ccc(Cl)cc1)CC(=O)c1ccc(F)cc1
GI50 [1]: > 100 µM (inactive)
GI50 [15]: > 100 µM (inactive)
GI50 [3]: > 100 µM (inactive)
GI50 [4]: > 100 µM (inactive)
GI50 [5]: > 100 µM (inactive)
GI50 [7]: > 100 µM (inactive)
GI50 [16]: > 100 µM (inactive)
GI50 [8]: > 100 µM (inactive)
GI50 [9]: 15.7 µM (inactive)
GI50 [10]: > 100 µM (inactive)
GI50 [12]: > 100 µM (inactive)
GI50 [13]: > 100 µM (inactive)
GI50 [14]: > 100 µM (inactive)

COC(=O)CCC(=O)Nc1cc(C)ccc1C
GI50 [1]: > 100 µM (inactive)
GI50 [15]: > 100 µM (inactive)
GI50 [3]: > 100 µM (inactive)
GI50 [4]: > 100 µM (inactive)
GI50 [5]: > 100 µM (inactive)
GI50 [6]: > 100 µM (inactive)
GI50 [16]: > 100 µM (inactive)
GI50 [9]: > 100 µM (inactive)
GI50 [10]: > 100 µM (inactive)
GI50 [12]: > 100 µM (inactive)
GI50 [13]: > 100 µM (inactive)
GI50 [14]: > 100 µM (inactive)

CCN(CC)CCNC(=O)c1cccc2cc3ccccc3nc12
GI50 [1]: 5.69 µM (inactive)
GI50 [15]: 5.73 µM (inactive)
GI50 [2]: 4.47 µM
GI50 [3]: 5.2 µM (inactive)
GI50 [4]: 8 µM (inactive)
GI50 [5]: 4.18 µM (inactive)
GI50 [7]: 6.21 µM (inactive)
GI50 [16]: 3.49 µM (inactive)
GI50 [8]: 6.84 µM (inactive)
GI50 [9]: 7.53 µM (inactive)
GI50 [10]: 7.45 µM (inactive)
GI50 [12]: 4.79 µM (inactive)
GI50 [14]: 3.45 µM (inactive)
